The values that follow come from ChEMBL document CHEMBL1147164, “Synthesis, stereochemistry and antimicrobial evaluation of some N-morpholinoacetyl-2,6-diarylpiperidin-4-ones” (2007).

Test [1] concerns Candida albicans. The experiment in a line: Antifungal activity against Candida albicans at 200 ug/ml after 72 to 96 hrs by twofold serial dilution method. It is filed as functional, organism-based.
The next test has as its system Rhizopus. In words: Antifungal activity against Rhizopus sp. after 72 to 96 hrs by twofold serial dilution method. Type of test: functional.
Test [2] deals with Aspergillus flavus. The experiment in a line: Antifungal activity against Aspergillus flavus after 72 to 96 hrs by twofold serial dilution method. Type of test: functional.
Another test has as its system Aspergillus niger. In words: Antifungal activity against Aspergillus niger after 72 to 96 hrs by twofold serial dilution method. It is filed as functional.
The next test relates to Staphylococcus aureus. The experiment in a line: Antibacterial activity against Staphylococcus aureus after 24 hrs by twofold serial dilution method. Type of test: functional.
Test [3] relates to Escherichia coli. The experiment in a line: Antibacterial activity against Escherichia coli after 24 hrs by twofold serial dilution method. It is filed as functional.
Another test deals with Pseudomonas aeruginosa. The experiment in a line: Antibacterial activity against Pseudomonas aeruginosa after 24 hrs by twofold serial dilution method. Type of test: functional.
The subject of test [4] is Salmonella typhi. In words: Antibacterial activity against Salmonella typhi at 200 ug/ml after 24 hrs by twofold serial dilution method. The settings on record: Salmonella enterica subsp. enterica serovar Typhi. Type of test: functional, organism-based.
The subject of test [5] is Candida albicans. The experiment in a line: Antifungal activity against Candida albicans after 72 to 96 hrs by twofold serial dilution method. Type of test: functional.
Test [6] has as its system Salmonella typhi. In words: Antibacterial activity against Salmonella typhi after 24 hrs by twofold serial dilution method. The settings on record: Salmonella enterica. It is filed as functional, Salmonella enterica subsp. enterica serovar Typhi.
Test [7] relates to Aspergillus flavus. The experiment in a line: Antifungal activity against Aspergillus flavus at 200 ug/ml after 72 to 96 hrs by twofold serial dilution method. It is filed as functional, organism-based.
The test system of test [8] is Escherichia coli. The experiment in a line: Antibacterial activity against Escherichia coli at 200 ug/ml after 24 hrs by twofold serial dilution method. It is filed as functional, organism-based.

In brackets after ≈: the same amount, converted by molar mass. Activity calls are given as the source filed them. No cut-off for these calls is given here.

As a reminder, the MIC is the least concentration at which growth counts as inhibited. A low value points to greater potency.

`CC1C(=O)CC(c2ccccc2)N(C(=O)CN2CCOCC2)C1c1ccccc1` (stereo not drawn): the outcome with Candida albicans [1] and in the test with Salmonella typhi [4] was inactive. For the same compound, the MIC is 100 mg/L (≈ 255 µM) with Rhizopus; 50 mg/L (≈ 127 µM) in the test on Aspergillus flavus [2]; 50 mg/L (≈ 127 µM) against Aspergillus niger; 200 mg/L (≈ 510 µM) against Staphylococcus aureus; 100 mg/L (≈ 255 µM) with Escherichia coli [3]; 50 mg/L (≈ 127 µM) in the test on Pseudomonas aeruginosa.

For `CCC1C(=O)CC(c2ccccc2)N(C(=O)CN2CCOCC2)C1c1ccccc1` (stereo not drawn), the MIC stood at 200 mg/L (≈ 492 µM) against Rhizopus; 100 mg/L (≈ 246 µM) against Aspergillus flavus [2]; 100 mg/L (≈ 246 µM) against Aspergillus niger; 100 mg/L (≈ 246 µM) in the test on Candida albicans [5]; 50 mg/L (≈ 123 µM) against Staphylococcus aureus; 50 mg/L (≈ 123 µM) in the test with Escherichia coli [3]. Moreover, the MIC in the test on Salmonella typhi [6] was determined as 100 mg/L (≈ 246 µM); in the test on Pseudomonas aeruginosa, 25 mg/L (≈ 61.5 µM).

Turning to `COc1ccc(C2CC(=O)C(C)C(c3ccc(OC)cc3)N2C(=O)CN2CCOCC2)cc1` (stereo not drawn), the MIC in the test with Rhizopus was 6.25 mg/L (≈ 13.8 µM); against Aspergillus flavus [2], 12.5 mg/L (≈ 27.6 µM); against Aspergillus niger, 50 mg/L (≈ 110 µM); against Candida albicans [5] it was 25 mg/L (≈ 55.2 µM); in the test on Staphylococcus aureus, 50 mg/L (≈ 110 µM); in the test on Escherichia coli [3] it was 100 mg/L (≈ 221 µM). For the same compound, the MIC was determined as 50 mg/L (≈ 110 µM) in the test with Salmonella typhi [6] and 25 mg/L (≈ 55.2 µM) in the test with Pseudomonas aeruginosa.

In the case of `O=C1CC(c2ccccc2)N(C(=O)CN2CCOCC2)C(c2ccccc2)C1` (stereo not drawn), the outcome with Candida albicans [1], in the test on Aspergillus flavus [7] and with Escherichia coli [8] was inactive. Also, the MIC in the test with Rhizopus came out at 100 mg/L (≈ 264 µM); in the test with Aspergillus niger, 200 mg/L (≈ 528 µM); with Staphylococcus aureus it was 200 mg/L (≈ 528 µM); against Salmonella typhi [6], 100 mg/L (≈ 264 µM); in the test with Pseudomonas aeruginosa, 100 mg/L (≈ 264 µM).

As to `CC1C(=O)C(C)C(c2ccc(Cl)cc2)N(C(=O)CN2CCOCC2)C1c1ccc(Cl)cc1` (stereo not drawn), the minimum inhibitory concentration (MIC) against Rhizopus stood at 25 mg/L (≈ 52.6 µM); against Aspergillus flavus [2], 6.25 mg/L (≈ 13.1 µM); with Aspergillus niger, 25 mg/L (≈ 52.6 µM); in the test with Candida albicans [5], 6.25 mg/L (≈ 13.1 µM); against Staphylococcus aureus, 25 mg/L (≈ 52.6 µM); in the test on Escherichia coli [3], 25 mg/L (≈ 52.6 µM). Moreover, the values for the MIC against Salmonella typhi [6] and against Pseudomonas aeruginosa were 100 mg/L (≈ 210 µM) and 50 mg/L (≈ 105 µM), respectively.

As to `C[C@@H]1[C@H](O)[C@@H](C)/C=C/C=C/C=C/C=C/C=C/C=C/C=C/[C@H](O[C@@H]2O[C@H](C)[C@@H](O)[C@H](N)[C@@H]2O)C[C@@H]2O[C@](O)(C[C@@H](O)C[C@@H](O)[C@H](O)CC[C@@H](O)C[C@@H](O)CC(=O)O[C@H]1C)C[C@H](O)[C@H]2C(=O)O` [AMPHOTERICIN B], the minimal inhibitory concentration (MIC) against Rhizopus turned out to be 25 mg/L (≈ 27.1 µM); with Aspergillus flavus [2], 50 mg/L (≈ 54.1 µM); against Aspergillus niger, 50 mg/L (≈ 54.1 µM); with Candida albicans [5], 25 mg/L (≈ 27.1 µM).

As for `O=C(O)c1cn(C2CC2)c2cc(N3CCNCC3)c(F)cc2c1=O` [CIPROFLOXACIN], the MIC against Escherichia coli [3] stood at 25 mg/L (≈ 75.4 µM); with Salmonella typhi [6], 50 mg/L (≈ 151 µM).

Regarding `CC1C(=O)C(C)C(c2ccccc2)N(C(=O)CN2CCOCC2)C1c1ccccc1` (stereo not drawn), the MIC in the test on Rhizopus worked out at 12.5 mg/L (≈ 30.7 µM); against Aspergillus flavus [2] it was 50 mg/L (≈ 123 µM); in the test on Aspergillus niger it was 25 mg/L (≈ 61.5 µM); in the test on Candida albicans [5] it was 50 mg/L (≈ 123 µM); in the test with Staphylococcus aureus it was 50 mg/L (≈ 123 µM); in the test on Escherichia coli [3], 100 mg/L (≈ 246 µM). Also, the MIC in the test with Salmonella typhi [6] was 50 mg/L (≈ 123 µM); against Pseudomonas aeruginosa it was 25 mg/L (≈ 61.5 µM).

`CC(C)C1C(=O)CC(c2ccccc2)N(C(=O)CN2CCOCC2)C1c1ccccc1` (stereo not drawn): the MIC in the test with Rhizopus was found to be 25 mg/L (≈ 59.4 µM); in the test with Aspergillus flavus [2], 100 mg/L (≈ 238 µM); against Aspergillus niger it was 50 mg/L (≈ 119 µM); against Candida albicans [5], 50 mg/L (≈ 119 µM); against Staphylococcus aureus, 100 mg/L (≈ 238 µM); against Escherichia coli [3] it was 100 mg/L (≈ 238 µM). In addition, the MIC was found to be 200 mg/L (≈ 476 µM) against Salmonella typhi [6] and 50 mg/L (≈ 119 µM) against Pseudomonas aeruginosa.

Regarding `COc1ccc(C2C(C)C(=O)C(C)C(c3ccc(OC)cc3)N2C(=O)CN2CCOCC2)cc1` (stereo not drawn), the MIC was 50 mg/L (≈ 107 µM) with Rhizopus; 100 mg/L (≈ 214 µM) in the test on Aspergillus flavus [2]; 50 mg/L (≈ 107 µM) against Aspergillus niger; 100 mg/L (≈ 214 µM) in the test with Candida albicans [5]; 6.25 mg/L (≈ 13.4 µM) against Staphylococcus aureus; 12.5 mg/L (≈ 26.8 µM) against Escherichia coli [3]. The MIC with Salmonella typhi [6] was found to be 25 mg/L (≈ 53.6 µM); against Pseudomonas aeruginosa, 12.5 mg/L (≈ 26.8 µM).

Take `Cc1ccc(C2C(C)C(=O)C(C)C(c3ccc(C)cc3)N2C(=O)CN2CCOCC2)cc1` (stereo not drawn): the minimum inhibitory concentration (MIC) is 25 mg/L (≈ 57.5 µM) with Rhizopus; 25 mg/L (≈ 57.5 µM) against Aspergillus flavus [2]; 50 mg/L (≈ 115 µM) in the test with Aspergillus niger; 50 mg/L (≈ 115 µM) against Candida albicans [5]; 50 mg/L (≈ 115 µM) against Staphylococcus aureus; 25 mg/L (≈ 57.5 µM) with Escherichia coli [3]. Also, the MIC in the test with Salmonella typhi [6] and against Pseudomonas aeruginosa was 6.25 mg/L (≈ 14.4 µM) in each case.
